Target: GST-Xa-hAAK1 (Homo sapiens (Human), UniProt Q2M2I8)
Assay: AAK1 Kinase Assay
Assay type: biochemical
Settings: ATP 22 μM; 3 hours at room temperature
Protocol: The assays were performed in U-bottom 384-well plates. […] The reactions were initiated by the combination of bacterially expressed, GST-Xa-hAAK1 with substrates and test compounds. The reactions were incubated at room temperature for 3 hours and terminated by adding 60 μl of 35 mM EDTA buffer to each sample. The reactions were analyzed on the Caliper LabChip 3000 (Caliper, Hopkinton, Mass.) by electrophoretic separation of the fluorescent substrate and phosphorylated product. Inhibition data were calculated by comparison to EDTA quenched control reactions for 100% inhibition and vehicle-only reactions for 0% inhibition. […] Dose response curves were generated to determine the concentration required inhibiting 50% of kinase activity (IC50). Compounds were dissolved at 10 mM in dimethylsulfoxide (DMSO) and evaluated at eleven concentrations. IC50 values were derived by non-linear regression analysis.

Sequence of GST-Xa-hAAK1 (Q2M2I8 whole entry): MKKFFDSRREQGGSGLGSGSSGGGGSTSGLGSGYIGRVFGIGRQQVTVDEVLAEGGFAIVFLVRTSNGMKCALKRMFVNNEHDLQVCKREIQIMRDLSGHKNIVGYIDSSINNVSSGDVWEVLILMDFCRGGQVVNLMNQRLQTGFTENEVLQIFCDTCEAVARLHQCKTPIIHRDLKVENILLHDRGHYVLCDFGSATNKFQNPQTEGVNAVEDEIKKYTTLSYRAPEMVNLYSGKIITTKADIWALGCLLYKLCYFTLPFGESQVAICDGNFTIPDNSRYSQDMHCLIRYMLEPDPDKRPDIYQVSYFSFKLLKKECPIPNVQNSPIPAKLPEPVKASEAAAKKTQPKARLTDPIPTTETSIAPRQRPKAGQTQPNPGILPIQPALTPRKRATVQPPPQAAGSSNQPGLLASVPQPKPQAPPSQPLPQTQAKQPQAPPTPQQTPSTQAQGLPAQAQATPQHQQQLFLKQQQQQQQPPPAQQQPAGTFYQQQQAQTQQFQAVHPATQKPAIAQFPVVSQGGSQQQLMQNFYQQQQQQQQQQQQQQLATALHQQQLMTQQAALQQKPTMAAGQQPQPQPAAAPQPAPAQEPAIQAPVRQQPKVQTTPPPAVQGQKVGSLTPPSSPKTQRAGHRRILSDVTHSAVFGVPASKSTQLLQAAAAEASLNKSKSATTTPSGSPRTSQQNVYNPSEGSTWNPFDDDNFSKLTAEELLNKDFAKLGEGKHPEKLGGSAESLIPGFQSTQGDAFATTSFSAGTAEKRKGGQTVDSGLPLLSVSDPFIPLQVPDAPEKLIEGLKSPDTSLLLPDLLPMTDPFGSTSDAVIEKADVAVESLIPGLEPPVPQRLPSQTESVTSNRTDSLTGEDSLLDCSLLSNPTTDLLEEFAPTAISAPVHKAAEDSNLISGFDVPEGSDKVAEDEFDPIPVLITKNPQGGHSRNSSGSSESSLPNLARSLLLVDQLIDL

IC50 | Compound
54 nM | COCc1ccn2ncnc(Nc3cccc(-c4nnn(C(C)C)n4)c3)c12 [Example 100, N-(3-(2-isopropyl-2H-tetrazol-5-yl)phenyl)-5-(methoxymethyl)pyrrolo[2,1-f][1,2,4]triazin-4-amine]
384 nM | CC(C)c1nnc(-c2cccc(Nc3ncnn4cccc34)c2)o1 [Example 80, N-(3-(5-isopropyl-1,3,4-oxadiazol-2-yl)phenyl)pyrrolo[2,1-f][1,2,4]triazin-4-amine]
75 nM | CC(C)n1nnc(-c2cc(O)cc(Nc3ncnn4cccc34)c2)n1 [Example 84, 3-(2-isopropyl-2H-tetrazol-5-yl)-5-(pyrrolo[2,1-f][1,2,4]triazin-4-ylamino)phenol]
73 nM | Cc1ccn2ncnc(Nc3cc(O)cc(-c4noc(C(C)C)n4)c3)c12 [Example 93, 3-(5-isopropyl-1,2,4-oxadiazol-3-yl)-5-((5-methylpyrrolo[2,1-f][1,2,4]triazin-4-yl)amino)phenol]
92 nM | CC(C)n1nnc(-c2cccc(Nc3ncnn4ccc(CO)c34)c2)n1 [Example 98, (4-((3-(2-isopropyl-2H-tetrazol-5-yl)phenyl)amino)pyrrolo[2,1-f][1,2,4]triazin-5-yl)methanol]
446 nM | Cn1ccc(-c2cccc(Nc3ncnn4ccc(CN5CCC(N)CC5)c34)c2)n1 [Example 12, 5-((4-aminopiperidin-1-yl)methyl)-N-(3-(1-methyl-1H-pyrazol-3-yl)phenyl)pyrrolo[2,1-f][1,2,4]triazin-4-amine]
49 nM | CC(C)n1nnc(-c2cccc(Nc3ncnn4ccc(CN(C)C)c34)c2)n1 [Example 102, 5-((dimethylamino)methyl)-N-(3-(2-isopropyl-2H-tetrazol-5-yl)phenyl)pyrrolo[2,1-f][1,2,4]triazin-4-amine]
16 nM | NC1CCN(Cc2ccn3ncnc(Nc4cccc(-c5noc(C6CCCC6)n5)c4)c23)CC1 [Example 73, 5-((4-aminopiperidin-1-yl)methyl)-N-(3-(5-cyclopentyl-1,2,4-oxadiazol-3-yl)phenyl)pyrrolo[2,1-f][1,2,4]triazin-4-amine]
1100 nM | CC(C)n1nnc(-c2cccc(Nc3ncnn4ccc(CNCC#N)c34)c2)n1 [Example 66, 2-(((4-((3-(2-isopropyl-2H-tetrazol-5-yl)phenyl)amino)pyrrolo[2,1-f][1,2,4]triazin-5-yl)methyl)amino)acetonitrile]
112 nM | CC(C)(CCl)c1nc(-c2cccc(Nc3ncnn4cccc34)c2)no1 [Example 78, N-(3-(5-(1-chloro-2-methylpropan-2-yl)-1,2,4-oxadiazol-3-yl)phenyl)pyrrolo[2,1-f][1,2,4]triazin-4-amine]
26 nM | CNC(=O)c1ccn2ncnc(Nc3cccc(-c4nnn(C(C)C)n4)c3)c12 [Example 103, 4-((3-(2-isopropyl-2H-tetrazol-5-yl)phenyl)amino)-N-methylpyrrolo[2,1-f][1,2,4]triazine-5-carboxamide]

Compound | IC50
CC(C)n1nnc(-c2cccc(Nc3ncnn4ccc(CN5[C@@H]6CC[C@H]5CC(O)C6)c34)c2)n1 (stereo partly drawn) [Example 59, (1R,5S)-8-((4-((3-(2-isopropyl-2H-tetrazol-5-yl)phenyl)amino)pyrrolo[2,1-f][1,2,4]triazin-5-yl)methyl)-8-azabicyclo[3.2.1]octan-3-ol] | 128 nM

Same assay, conditions: ATP 22 μM; 3 hours at room temperature; listed as IC50 ranges

IC50 | Compound
10 to 100 nM | CNC1CCN(Cc2ccn3ncnc(Nc4cccc(-c5nnc(C(C)C)o5)c4)c23)CC1 [Example 40, N-(3-(5-isopropyl-1,3,4-oxadiazol-2-yl)phenyl)-5-((4-(methylamino)piperidin-1-yl)methyl)pyrrolo[2,1-f][1,2,4]triazin-4-amine]
10 to 100 nM | CC(C)c1nc(-c2cccc(Nc3ncnn4ccc(CN5CCC(N)CC5)c34)c2)no1 [Example 2, 5-((4-aminopiperidin-1-yl)methyl)-N-(3-(5-isopropyl-1,2,4-oxadiazol-3-yl)phenyl)pyrrolo[2,1-f][1,2,4]triazin-4-amine]
100 to 1000 nM | CC(CN)CNCc1ccn2ncnc(Nc3cccc(-c4nnc(C(C)C)s4)c3)c12 (stereo not shown) [Example 70, N1-((4-((3-(5-isopropyl-1,3,4-thiadiazol-2-yl)phenyl)amino)pyrrolo[2,1-f][1,2,4]triazin-5-yl)methyl)-2-methylpropane-1,3-diamine]
100 to 1000 nM | NC1CCN(Cc2ccn3ncnc(Nc4cccc(-c5nc(-c6ccccc6)no5)c4)c23)CC1 [Example 16, 5-((4-aminopiperidin-1-yl)methyl)-N-(3-(3-phenyl-1,2,4-oxadiazol-5-yl)phenyl)pyrrolo[2,1-f][1,2,4]triazin-4-amine]
100 to 1000 nM | Cc1nnc(-c2cccc(Nc3ncnn4ccc(CN5CCC(N)CC5)c34)c2)s1 [Example 17, 5-((4-aminopiperidin-1-yl)methyl)-N-(3-(5-methyl-1,3,4-thiadiazol-2-yl)phenyl)pyrrolo[2,1-f][1,2,4]triazin-4-amine]
10 to 100 nM | CC(C)c1nc(-c2cc(F)cc(Nc3ncnn4ccc(CN5CCC(N)CC5)c34)c2)no1 [Example 46, 5-((4-aminopiperidin-1-yl)methyl)-N-(3-fluoro-5-(5-isopropyl-1,2,4-oxadiazol-3-yl)phenyl)pyrrolo[1,2-f][1,2,4]triazin-4-amine]
100 to 1000 nM | CC(C)n1nnc(-c2cccc(Nc3ncnn4ccc(CN5CC(C#N)C5)c34)c2)n1 [Example 64, 1-((4-((3-(2-isopropyl-2H-tetrazol-5-yl)phenyl)amino)pyrrolo[2,1-f][1,2,4]triazin-5-yl)methyl)azetidine-3-carbonitrile]
100 to 1000 nM | CC(C)c1nnc(-c2cccc(Nc3ncnn4ccc(CN5CCC(N)C5)c34)c2)s1 (stereo not shown) [Example 32, 5-((3-aminopyrrolidin-1-yl)methyl)-N-(3-(5-isopropyl-1,3,4-thiadiazol-2-yl)phenyl)pyrrolo[2,1-f][1,2,4]triazin-4-amine]
10 to 100 nM | CC(C)n1nnc(-c2cc(Nc3ncnn4ccc(CN5CCC(N)CC5)c34)cc(C(F)F)c2)n1 [Example 72, 5-((4-aminopiperidin-1-yl)methyl)-N-(3-(difluoromethyl)-5-(2-isopropyl-2H-tetrazol-5-yl)phenyl)pyrrolo[2,1-f][1,2,4]triazin-4-amine]
100 to 1000 nM | CC(C)c1nnc(-c2cccc(Nc3ncnn4ccc(CN5CC6CNCC6C5)c34)c2)s1 (stereo not shown) [Example 29, 5-((hexahydropyrrolo[3,4-c]pyrrol-2(1H)-yl)methyl)-N-(3-(5-isopropyl-1,3,4-thiadiazol-2-yl)phenyl)pyrrolo[2,1-f][1,2,4]triazin-4-amine]
10 to 100 nM | CC(C)c1nnc(-c2cccc(Nc3ncnn4ccc(CN5CCC(N)CC5)c34)c2)s1 [Example 9, 5-((4-aminopiperidin-1-yl)methyl)-N-(3-(5-isopropyl-1,3,4-thiadiazol-2-yl)phenyl)pyrrolo[2,1-f][1,2,4]triazin-4-amine]
1000 to 5000 nM | CC(C)c1nnc(-c2cccc(Nc3ncnn4ccc(CN5CCCC(CN)C5)c34)c2)s1 (stereo not shown) [Example 71, 5-((3-(aminomethyl)piperidin-1-yl)methyl)-N-(3-(5-isopropyl-1,3,4-thiadiazol-2-yl)phenyl)pyrrolo[2,1-f][1,2,4]triazin-4-amine]

Compound | IC50
CC(C)n1nnc(-c2cccc(Nc3ncnn4ccc(CN5[C@@H]6CC[C@H]5CN(C)C6)c34)c2)n1 [Example 60, N-(3-(2-isopropyl-2H-tetrazol-5-yl)phenyl)-5-(((1R,5S)-3-methyl-3,8-diazabicyclo[3.2.1]octan-8-yl)methyl)pyrrolo[2,1-f][1,2,4]triazin-4-amine] | 100 to 1000 nM

Source: patent US9737542B2, “Pyrrolotriazine kinase inhibitors” (BRISTOL-MYERS SQUIBB COMPANY, priority 2013, dated 2017)
